MIC and IC50 data for ten molecules are collected here from ChEMBL document CHEMBL1142476, “Inhibition of Candida albicans isocitrate lyase activity by sesterterpene sulfates from the tropical sponge Dysidea sp” (Bioorg Med Chem Lett, 2008).

The test system of one experiment is Staphylococcus aureus. The experiment in a line: Antibacterial activity against Staphylococcus aureus ATCC 6538. It counts as functional.
In the next experiment the test system is Bacillus subtilis. Put plainly: Antibacterial activity against Bacillus subtilis ATCC 6633. It counts as functional.
For another experiment, the system named is Micrococcus luteus. The experiment in a line: Antibacterial activity against Micrococcus luteus IFC12708. It counts as functional.
The subject of a further experiment is Proteus vulgaris. The experiment in a line: Antibacterial activity against Proteus vulgaris ATCC 3851. It counts as functional.
The next experiment deals with Salmonella typhimurium. The experiment in a line: Antibacterial activity against Salmonella Typhimurium ATCC 14028. The note with it: Salmonella enterica. It counts as functional, Salmonella enterica subsp. enterica serovar Typhimurium.
The test system of another experiment is Escherichia coli. Put plainly: Antibacterial activity against Escherichia coli ATCC 11775. It counts as functional.
In another experiment the target is Isocitrate lyase (Candida albicans, UniProt Q9P8Q7). The experiment in a line: Inhibition of candida albicans isocitrate lyase.
The next experiment has as its system Candida albicans. The experiment in a line: Antifungal activity against candida albicans ATCC 10231. It counts as functional, organism-based.

Structures are written as SMILES. ≈ marks a conversion by molar mass, not a printed value.

Chain of Isocitrate lyase (Q9P8Q7 whole entry): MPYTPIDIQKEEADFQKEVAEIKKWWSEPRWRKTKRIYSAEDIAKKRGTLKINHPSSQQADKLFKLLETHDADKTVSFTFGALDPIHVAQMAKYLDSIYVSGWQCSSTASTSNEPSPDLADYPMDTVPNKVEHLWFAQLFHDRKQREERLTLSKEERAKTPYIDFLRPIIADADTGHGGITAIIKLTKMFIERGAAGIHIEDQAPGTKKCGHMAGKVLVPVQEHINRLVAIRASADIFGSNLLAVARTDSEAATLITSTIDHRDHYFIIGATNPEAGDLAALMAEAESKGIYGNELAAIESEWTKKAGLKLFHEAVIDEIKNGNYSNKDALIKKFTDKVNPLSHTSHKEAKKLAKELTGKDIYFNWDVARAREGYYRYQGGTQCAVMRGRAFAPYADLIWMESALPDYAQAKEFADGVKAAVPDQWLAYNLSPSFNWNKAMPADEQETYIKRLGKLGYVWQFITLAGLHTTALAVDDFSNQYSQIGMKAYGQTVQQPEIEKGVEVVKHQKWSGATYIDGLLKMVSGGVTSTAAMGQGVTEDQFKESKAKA

The term MIC denotes the smallest concentration in the dilution series that meets the test's criterion for growth inhibition. A high value points to a need for much substance. In the case of `CC1(C)S[C@@H]2[C@H](NC(=O)[C@H](N)c3ccccc3)C(=O)N2[C@H]1C(=O)O` [AMPICILLIN], the MIC was 3.12 µg/mL (≈ 8.93 µM) against Staphylococcus aureus; 1.56 µg/mL (≈ 4.46 µM) in the experiment on Bacillus subtilis; 1.56 µg/mL (≈ 4.46 µM) against Micrococcus luteus; 1.56 µg/mL (≈ 4.46 µM) against Proteus vulgaris; 1.56 µg/mL (≈ 4.46 µM) in the experiment with Salmonella typhimurium; 6.25 µg/mL (≈ 17.9 µM) in the experiment with Escherichia coli.
One may read the IC50 as the concentration that gives 50% inhibition. The low end stands for higher potency, the high end for lower potency. As to `CC1=CC[C@H]2C(C)(C)CCC[C@]2(C)[C@H]1C/C=C(\C)CCC/C(C)=C/Cc1cc(O)ccc1O`, the IC50 at Isocitrate lyase stood at 76.8 µM; in the experiment on Candida albicans, 222 µM. The MIC is 100 µg/mL (≈ 222 µM) with Staphylococcus aureus; 3.25 µg/mL (≈ 7.21 µM) against Bacillus subtilis; 25 µg/mL (≈ 55.5 µM) against Micrococcus luteus; 6.25 µg/mL (≈ 13.9 µM) with Proteus vulgaris; 25 µg/mL (≈ 55.5 µM) against Salmonella typhimurium; over 100 µg/mL against Escherichia coli.
Take `CC1=CC[C@H]2C(C)(C)CCC[C@]2(C)[C@H]1C[C@@H](OS(=O)(=O)O)[C@H](C)CCC/C(C)=C/Cc1cc(O)ccc1O.CN(C)C(=N)N`: the half-inhibitory concentration (IC50) on Isocitrate lyase and in the experiment with Candida albicans was 158 µM throughout. For the same molecule, the MIC with Staphylococcus aureus is 50 µg/mL; in the experiment on Bacillus subtilis it was 6.25 µg/mL; against Micrococcus luteus it was over 100 µg/mL; against Proteus vulgaris, 12.5 µg/mL; in the experiment with Salmonella typhimurium, 50 µg/mL; in the experiment with Escherichia coli it was over 100 µg/mL.
In the case of `O=C(O)CC[N+](=O)[O-]`, the IC50 worked out at 50.7 µM on Isocitrate lyase and 845 µM in the experiment on Candida albicans.
For `CC1=CC[C@H]2C(C)(C)CCC[C@]2(C)[C@H]1C[C@@H](OS(=O)(=O)[O-])[C@H](C)CCC/C(C)=C/Cc1cc(O)ccc1O.[Na+]` [HALISULFATE 1], the half-maximal inhibitory concentration (IC50) is 70.2 µM on Isocitrate lyase and 131 µM in the experiment on Candida albicans. The minimal inhibitory concentration (MIC) was 25 µg/mL with Staphylococcus aureus; 1.56 µg/mL in the experiment on Bacillus subtilis; 50 µg/mL in the experiment with Micrococcus luteus; 6.25 µg/mL in the experiment on Proteus vulgaris; 50 µg/mL against Salmonella typhimurium; over 100 µg/mL against Escherichia coli.
On to `CC1=CCC[C@@H](C)[C@]1(C)CC/C(C)=C/CCC(CCCc1ccoc1)COS(=O)(=O)O.CN(C)C(=N)N` (stereo not given in full), for which the IC50 at Isocitrate lyase and in the experiment on Candida albicans was 186 µM each time. Moreover, the MIC against Staphylococcus aureus was over 100 µg/mL; against Bacillus subtilis, 6.25 µg/mL; with Micrococcus luteus, over 100 µg/mL; against Proteus vulgaris, 25 µg/mL; against Salmonella typhimurium, over 100 µg/mL; in the experiment with Escherichia coli it was over 100 µg/mL.
As for `C=C1CCC[C@@H]2[C@@](C)(CC[C@H](CCCc3ccoc3)COS(=O)(=O)O)[C@H](C)CC[C@]12C.CN(C)C(=N)N`, the IC50 came out at 31.3 µM at Isocitrate lyase and 186 µM in the experiment with Candida albicans. The MIC in the experiment with Staphylococcus aureus was 50 µg/mL; against Bacillus subtilis, 12.5 µg/mL; with Micrococcus luteus, 25 µg/mL; against Proteus vulgaris, 6.25 µg/mL; against Salmonella typhimurium it was 25 µg/mL; with Escherichia coli it was over 100 µg/mL.
The molecule `C[C@@H]1[C@H](O)[C@@H](C)/C=C/C=C/C=C/C=C/C=C/C=C/C=C/[C@H](O[C@@H]2O[C@H](C)[C@@H](O)[C@H](N)[C@@H]2O)C[C@@H]2O[C@](O)(C[C@@H](O)C[C@@H](O)[C@H](O)CC[C@@H](O)C[C@@H](O)CC(=O)O[C@H]1C)C[C@H](O)[C@H]2C(=O)O` [AMPHOTERICIN B] had an IC50 in the experiment with Candida albicans of 1.7 µM.
Take `C=C1CC[C@H]2C(C)(C)CCC[C@]2(C)[C@H]1C[C@@H](OS(=O)(=O)[O-])[C@H](C)CCC/C(C)=C/Cc1cc(O)ccc1O.[Na+]`: the IC50 on Isocitrate lyase is 71 µM; in the experiment on Candida albicans, 131 µM. The MIC was 25 µg/mL against Staphylococcus aureus; 1.56 µg/mL in the experiment with Bacillus subtilis; 50 µg/mL with Micrococcus luteus; 6.25 µg/mL against Proteus vulgaris; 50 µg/mL in the experiment on Salmonella typhimurium; over 100 µg/mL in the experiment with Escherichia coli.
On to `CN(C)C(=N)N.C[C@@H]1CCC2=C(CCCC2(C)C)[C@@]1(C)CC[C@H](CCCc1ccoc1)COS(=O)(=O)O`, for which the IC50 at Isocitrate lyase came out at 33.8 µM; with Candida albicans, 186 µM. The MIC was 50 µg/mL in the experiment with Staphylococcus aureus; 6.25 µg/mL against Bacillus subtilis; 50 µg/mL in the experiment with Micrococcus luteus; 12.5 µg/mL with Proteus vulgaris; over 100 µg/mL with Salmonella typhimurium; over 100 µg/mL against Escherichia coli.
